Assay results as given in patent US10428082B2, “Triazole derivatives of melampomagnolide B and methods of use thereof” (BioVentures, LLC, priority 2016, dated 2019).
Read-outs that look alike come from different tables or passages of the source.

Key:
M9 ENL1 cell line = assay: Anti-leukemic activity, Annexin V/7-AAD flow cytometry; type: cell-based; conditions: 24 h of drug exposure, read-out: M9ENL1 (EC50)
Method: The newly synthesized triazole derivatives of melampomagnolide B were screened for anti-leukemic activity against M9 ENL1 and primary AML cell lines; the latter were obtained with informed consent from human patients. Evaluations were performed after 24 h of drug exposure using flow cytometric analysis by labeling with Annexin V and 7-aminoactinomycin D (7-AAD) to delineate apoptotic cell populations. In all experiments PTL was included as a reference control.

SW-620 = assay: NCI 60 growth inhibition; type: cell-based, human; conditions: SW-620, Colon Cancer
MDA-MB-231/ATCC = assay: NCI 60 growth inhibition; type: cell-based, human; conditions: Breast Cancer
SK-OV-3 = assay: NCI 60 growth inhibition; type: cell-based, human; conditions: SK-OV-3, Ovarian Cancer
SF-539 = assay: NCI 60 growth inhibition; type: cell-based, human; conditions: SF-539, CNS Cancer
SF-268 = assay: NCI 60 growth inhibition; type: cell-based, human; conditions: SF-268, CNS Cancer
CCRF-CEM = assay: NCI 60 growth inhibition; type: cell-based, human; conditions: Leukemia
MOLT-4 = assay: NCI 60 growth inhibition; type: cell-based, human; conditions: MOLT-4, Leukemia
MDA-MB-468 = assay: NCI 60 growth inhibition; type: cell-based, human; conditions: MDA-MB-468, Breast Cancer
HT29 = assay: NCI 60 growth inhibition; type: cell-based, human
BT-549 = assay: NCI 60 growth inhibition; type: cell-based, human; conditions: BT-549, Breast Cancer
OVCAR-5 = assay: NCI 60 growth inhibition; type: cell-based, human; conditions: OVCAR-5, Ovarian Cancer
ACHN = assay: NCI 60 growth inhibition; type: cell-based, human; conditions: Renal Cancer
MALME-3M = assay: NCI 60 growth inhibition; type: cell-based, human; conditions: Melanoma
NCI-H23 = assay: NCI 60 growth inhibition; type: cell-based, human; conditions: NCI-H23, Non-Small Cell Lung Cancer
MDA-MB-435 = assay: NCI 60 growth inhibition; type: cell-based, human; conditions: MDA-MB-435, Melanoma
SNB-75 = assay: NCI 60 growth inhibition; type: cell-based, human; conditions: SNB-75, CNS Cancer
K-562 = assay: NCI 60 growth inhibition; type: cell-based, human; conditions: K-562, Leukemia
SNB-19 = assay: NCI 60 growth inhibition; type: cell-based, human; conditions: SNB-19, CNS Cancer
RXF 393 = assay: NCI 60 growth inhibition; type: cell-based, human
[1] = system: NCI panel of 60 human cancer cell lines; assay: NCI 60 growth inhibition, ranges over groups of cell lines; type: cell-based; conditions: several cell lines in the panel, read-out: GI50
Method: The above triazole derivatives of melampomagnolide B were evaluated for growth inhibitory properties against an NCI panel of 60 human cancer cell lines derived from nine human cancer cell types, grouped into disease sub-panels that represent leukemia, lung, colon, central nervous system (CNS), melanoma, renal, ovary, breast, and prostate cancer cells. Growth inhibitory (GI50) effects were measured as a function of the variation of optical density as a percentage of control.

SK-MEL-28 = assay: NCI 60 growth inhibition; type: cell-based, human; conditions: SK-MEL-28, Melanoma

C=C1C(=O)O[C@H]2[C@H]1CC/C(Cn1cc(CCC)nn1)=C\CC[C@@]1(C)O[C@@H]21 [JVM 4-16, (1aR,7aS,10aS,10bS,E)-1a-Methyl-8-methylene-5((4-propyl-1H-1,2,3-triazol-1-yl)methyl)-2,3,6,7,7a,8,10a,10b-octahydrooxireno[2′,3′:9,10]cyclodeca[1,2-b]furan-9(1aH)-one]
EC50 (M9 ENL1 cell line; M9-ENL1, 24 h): 5500 nM | GI50 (SW-620; Homo sapiens, Table 2): 4230 nM | GI50 (MDA-MB-231/ATCC; Homo sapiens, Table 2): 4220 nM | GI50 (SK-OV-3; Homo sapiens, Table 2): 26000 nM | GI50 (SF-539; Homo sapiens, Table 2): 8870 nM | GI50 (SF-268; Homo sapiens, Table 2): 13700 nM | GI50 (CCRF-CEM; Homo sapiens, Table 2): 3000 nM | GI50 (MOLT-4; Homo sapiens, Table 2): 5540 nM | GI50 (MDA-MB-468; Homo sapiens, Table 2): 3650 nM | GI50 (HT29; Homo sapiens, HT-29, Colon Cancer, Table 2): 5500 nM | GI50 (BT-549; Homo sapiens, Table 2): 14200 nM | GI50 (OVCAR-5; Homo sapiens, Table 2): 14100 nM | GI50 (ACHN; Homo sapiens, Table 2): 3810 nM | GI50 (MALME-3M; Homo sapiens, Table 2): 4700 nM | GI50 (NCI-H23; Homo sapiens, Table 2): 13600 nM | GI50 (MDA-MB-435; Homo sapiens, Table 2): 10400 nM | GI50 (SNB-75; Homo sapiens, Table 2): 18500 nM | GI50 (K-562; Homo sapiens, K562, Table 2): 3960 nM | GI50 (SNB-19; Homo sapiens, Table 2): 18800 nM | GI50 (RXF 393; Homo sapiens, RXF 393, RXF 393, Renal Cancer, Table 2): 4800 nM | GI50 [1]: < 5000 nM

C=C1C(=O)O[C@H]2[C@H]1CC/C(Cn1cc(-c3ccc(N)cc3)nn1)=C\CC[C@@]1(C)O[C@@H]21 [JVM 4-58]
EC50 (M9 ENL1 cell line): 2000 nM | GI50 (SW-620; Table 3): 2160 nM | GI50 (MDA-MB-231/ATCC; Table 3): 3450 nM | GI50 (SK-OV-3; Table 3): 18300 nM | GI50 (SF-539; Table 3): 2770 nM | GI50 (SF-268; Table 3): 3700 nM | GI50 (CCRF-CEM; Table 3): 2000 nM | GI50 (MOLT-4; Table 3): 2870 nM | GI50 (MDA-MB-468; Table 3): 1770 nM | GI50 (HT29; HT29, Colon Cancer, Table 3): 2140 nM | GI50 (BT-549; Table 3): 3050 nM | GI50 (OVCAR-5; Table 3): 6430 nM | GI50 (ACHN; Table 3): 2650 nM | GI50 (MALME-3M; Table 3): 2180 nM | GI50 (NCI-H23; Table 3): 2490 nM | GI50 (MDA-MB-435; Table 3): 3010 nM | GI50 (SNB-75; Table 3): 4980 nM | GI50 (K-562; Table 3): 2990 nM | GI50 (SNB-19; Table 3): 12700 nM | GI50 (RXF 393; RXF 393, Renal Cancer, Table 3): 1410 nM | GI50 (SK-MEL-28; Table 3): 2710 nM

C=C1C(=O)O[C@H]2[C@H]1CC/C(Cn1cc(-c3cc(C)c(C)cc3C)nn1)=C\CC[C@@]1(C)O[C@@H]21 [JVM 4-50]
EC50 (M9 ENL1 cell line): 9800 nM | GI50 (SW-620; Table 2): 420 nM | GI50 (MDA-MB-231/ATCC; Table 2): 1110 nM | GI50 (SK-OV-3; Table 2): 11700 nM | GI50 (SF-539; Table 2): 1160 nM | GI50 (SF-268; Table 2): 1520 nM | GI50 (CCRF-CEM; Table 2): 450 nM | GI50 (MOLT-4; Table 2): 2380 nM | GI50 (MDA-MB-468; Table 2): 530 nM | GI50 (HT29; HT-29, Colon Cancer, Table 2): 500 nM | GI50 (BT-549; Table 2): 750 nM | GI50 (OVCAR-5; Table 2): 1740 nM | GI50 (ACHN; Table 2): 1070 nM | GI50 (MALME-3M; Table 2): 1430 nM | GI50 (NCI-H23; Table 2): 1770 nM | GI50 (MDA-MB-435; Table 2): 1410 nM | GI50 (SNB-75; Table 2): 520 nM | GI50 (K-562; Table 2): 1390 nM | GI50 (SNB-19; Table 2): 3900 nM | GI50 (RXF 393; RXF 393, Renal Cancer, Table 2): 960 nM | GI50 (SK-MEL-28; Table 2): 1400 nM
